For one data set, the target named is hERG channel (Homo sapiens (Human), UniProt Q12809). The data set is described as follows: Evaluation of action on hERG IKr current (patch-clamp). The format is cell-based. Conditions: HEK293 cell overexpressing hERG, maximum tail current, 10 minutes after application; read-out: IC50 (50% inhibitory activity of hERG channel). As to the method: Using HEK293 cell overexpressing a human ether-a-go-go-related gene (hERG), the maximum tale current of the hERG IKr current induced by redepolarization pulse subsequent to depolarization pulse was measured by a patch-clamp method.
For orientation: The hERG channel carries a current that helps repolarise heart muscle cells.

Data set [1] in a line: Evaluation of stability in human liver microsome. The format is in vitro ADME. Conditions: human, 15 min, 5 μmol/L, pH 7.4. As to the method:
A test compound (10 mmol/L DMSO solution, 5 μL) was diluted with 50% acetonitrile aqueous solution (195 μL) to prepare 0.25 mmol/L solution.
To a reactor vessel which had been warmed to 37° C. in advance, 0.5 mg/mL of human liver microsome (Xenotech) and 245 μL of 0.1 M phosphate buffer solution (pH 7.4) including NADPH-Co-factor (BD Biosciences) were added, followed by preincubation for five minutes. Then, the above-mentioned test compound solution (5 μL) was added so as to start reaction (final concentration: 5 μmol/L). Immediately after the start, 20 μL was harvested and added to 180 μL of acetonitrile including an internal standard substance (warfarin) to stop the reaction. This solution (20 μL) was stirred with 180 μL of 50% acetonitrile aqueous solution on a plate equipped with a deproteinization filter. Then, the resulting mixture solution was subjected to suction filtration. The filtrate was adopted as a standard sample.
The above-mentioned reaction solution was incubated at 37° C. for 15 minutes, and 20 μL of the solution was added to 180 μL of cooled acetonitrile (including warfarin that is an internal standard substance) to stop the reaction. This solution (20 μL) was stirred with 180 μL of 50% acetonitrile aqueous solution on a plate equipped with a deproteinization filter, and then the resulting mixture solution was subjected to suction filtration. The filtrate was adopted as a reaction sample.
Residual rate (%) was obtained as follows: 1 μL of the sample solution was infused into LC-MS/MS (Discovery Max manufactured by Thermo Scientific), and a quotient obtained by dividing a peak area ratio of the reaction sample (peak area of test compound/peak area of internal standard substance) was divided by the peak area ratio of the standard sample was multiplied by 100.
For orientation: Microsomes from liver hold many membrane-bound enzymes, among them those of drug oxidation.

The next data set has as its target Human KCNQ2/3 channel (Homo sapiens (Human), UniProt O43525+O43526). The data set is described as follows: Opening action with respect to KCNQ2/3 channel by depolarization stimulation (thallium influx, FLIPR). Conditions: concentration giving 50% of maximum reaction of retigabine (10 μM); human KCNQ2/3 expression CHO-DHFR- cells; 5 mM potassium and 0.5 mM thallium; read-out: KCNQ2/3 ECrtg50. Format: cell-based. The essentials: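 CHO-DHFR- cells expressing human KCNQ2/3, loaded with FluxOR thallium dye 60 min at room temperature. Compound added 5 min before depolarisation with 5 mM K+ and 0.5 mM Tl+; fluorescence change over 180 s read on FLIPR. ECrtg50 is the concentration giving 50% of the maximal response to 10 μM retigabine.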

For data set [2], the system named is urinary bladder extracted from rat. The data set is described as follows: Relaxing action on urinary bladder extracted from rat (rat Magnus test). The conditions noted are these: concentration at which tension change rate is -20%; carbachol 1 μM-induced contraction of rat urinary bladder strips. As to the method:
Female Jcl Wistar rats (CLEA Japan, Inc., body weight in use: 170 to 200 g) were anesthetized by intraperitoneal administration of about 40 mg/kg of pentobarbital (Somnopentyl, Schering Plough Animal Health Corporation), and killed by bloodletting, followed by abdominal incision to extract the urinary bladder. Immediately, the extracted urinary bladder was immersed in ice-cooled Krebs buffer (Krebs Ringer bicarbonate buffer (Sigma-Aldlich Co.) containing sodium hydrogencarbonate (final concentration: 15 mM) and calcium chloride (final concentration: 2.5 mM)) which had been saturated with a mixed gas (95% O2, 5% CO2).
The urinary bladder bodies were cut in the longitudinal direction to prepare strip specimens (about 10×3 mm) on ice. Immediately, the prepared specimens were suspended in a Magnus tube with 500 mg of tension loaded. The tube was filled with Krebs buffer (37° C.) aerated with a mixed gas. Note here that specimens were prepared within 24 hours after extraction of the tissue.
When one hour or more had passed after the specimen was suspended, 2.5M KCl was added so that the final concentration became 100 mM, specimens showing contraction reaction were used.
Carbachol (a contraction-inducing substance) at the concentration of contraction of 1 μM was used to induce contraction. […] After the contraction reaction was stabilized, a physiological salt solution or the compound of the present invention was added in a cumulative manner from low concentration such that the final concentration became 1, 10, 100 nM, 1 and 10 μM.
The tension (mg) of the extracted urinary bladder was employed as an evaluation parameter. The tension was read by using analysis software WAVE THERMO 1000. Tension after addition of the contraction-inducing substance was set to 0%. The change rate of the tension after addition of the compound of the present invention relative to the tension after addition of the contraction-inducing substance was defined as tension change rate (%). The tension change rate (%) was adopted as an evaluation indicator. The tension change rate (%) is calculated from the following formula. Tension change rate (%)={Tension after addition of compound of the present invention and the like (mg)−Tension before addition of contraction-inducing substance (mg)}/{Tension after addition of contraction-inducing substance (mg)−Tension before addition of contraction-inducing substance (mg)}×100−100
The value at which the tension change rate (%) was −20% was calculated as IC20, and the value was adopted as an indicator of the relaxing action of the extracted urinary bladder.

Data set [3] in a line: Solubility test (DMSO precipitation method, Pharmacopoeia of Japan elution test second solution). The format is physicochemical. The conditions noted are these: aqueous buffer, kinetic from dmso stock; Pharmacopoeia of Japan elution test second solution pH=6.8, room temperature, five hours; quantitation range 5 to 100 μM. The essentials: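 Test compound from 10 mM DMSO stock added to JP elution test second solution (pH 6.8), stirred 5 h at room temperature, then suction-filtered. Filtrate diluted in acetonitrile with internal standard and quantified by LC-MS/MS against a calibration curve (quantitation range 5 to 100 μM).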

Results on five compounds are retold here after patent publication US10676438B2, “KCNQ2-5 channel activator” (Ono Pharmaceutical Co., Ltd., priority 2014, dated 2020).

Each structure is given as a SMILES string. In brackets after ≈: the same amount, converted by molar mass.

Chain of hERG channel (Q12809 whole entry): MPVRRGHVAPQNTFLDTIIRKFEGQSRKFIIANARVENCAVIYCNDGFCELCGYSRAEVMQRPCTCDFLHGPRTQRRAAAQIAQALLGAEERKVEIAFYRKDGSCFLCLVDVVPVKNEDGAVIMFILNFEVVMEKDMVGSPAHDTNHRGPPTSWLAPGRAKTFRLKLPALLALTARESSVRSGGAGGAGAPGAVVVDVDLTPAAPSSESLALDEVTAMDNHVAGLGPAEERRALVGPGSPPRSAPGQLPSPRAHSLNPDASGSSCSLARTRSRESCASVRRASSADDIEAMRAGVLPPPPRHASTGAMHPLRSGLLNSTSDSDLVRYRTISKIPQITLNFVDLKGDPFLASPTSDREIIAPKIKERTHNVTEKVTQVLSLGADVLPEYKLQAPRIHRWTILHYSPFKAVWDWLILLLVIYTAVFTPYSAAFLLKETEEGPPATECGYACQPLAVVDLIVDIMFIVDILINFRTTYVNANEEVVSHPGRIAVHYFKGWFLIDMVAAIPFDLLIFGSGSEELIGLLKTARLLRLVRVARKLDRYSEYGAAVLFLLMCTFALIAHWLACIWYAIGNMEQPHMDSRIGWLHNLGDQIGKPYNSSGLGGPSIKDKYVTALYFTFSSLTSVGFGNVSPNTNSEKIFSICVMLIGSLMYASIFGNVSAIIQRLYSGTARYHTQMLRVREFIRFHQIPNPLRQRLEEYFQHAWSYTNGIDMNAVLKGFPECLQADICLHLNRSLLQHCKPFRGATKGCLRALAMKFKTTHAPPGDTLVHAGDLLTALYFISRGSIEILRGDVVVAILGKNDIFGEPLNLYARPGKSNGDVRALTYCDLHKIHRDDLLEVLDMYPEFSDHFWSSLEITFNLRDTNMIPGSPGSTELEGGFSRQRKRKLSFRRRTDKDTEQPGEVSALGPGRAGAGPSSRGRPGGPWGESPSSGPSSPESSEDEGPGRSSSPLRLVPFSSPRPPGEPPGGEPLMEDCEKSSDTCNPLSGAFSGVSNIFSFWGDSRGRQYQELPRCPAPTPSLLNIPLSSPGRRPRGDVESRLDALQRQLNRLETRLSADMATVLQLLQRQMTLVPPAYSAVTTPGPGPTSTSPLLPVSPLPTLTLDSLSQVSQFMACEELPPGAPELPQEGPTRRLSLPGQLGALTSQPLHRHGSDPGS

`C[C@@](O)(c1cc(Cl)c(NC(=O)NCc2ccc(C(F)(F)F)nc2)c(Cl)c1)C(F)(F)F` [Example 22 (3), 1-{2,6-dichloro-4-[(2R)-1,1,1-trifluoro-2-hydroxy-2-propanyl]phenyl}-3-{[6-(trifluoromethyl)-3-pyridinyl]methyl}urea]: on hERG channel, the IC50 is > 10000 nM. The compound also returned a Residual rate in data set [1] of 98%. The EC50 on Human KCNQ2/3 channel was 200 nM. This compound also came in with an IC20 in data set [2] of 300 nM. The same compound displayed a solubility at 5 h in data set [3] of 81 µM (≈ 38.6 µg/mL).

With `C[C@@](O)(c1cc(Cl)c(NC(=O)NCc2ncc(C(F)(F)F)cn2)c(Cl)c1)C(F)(F)F` [Example 22 (2), 1-{2,6-dichloro-4-[(2R)-1,1,1-trifluoro-2-hydroxy-2-propanyl]phenyl}-3-{[5-(trifluoromethyl)-2-pyrimidinyl]methyl}urea], the half-maximal inhibitory concentration (IC50) on hERG channel was > 10000 nM. This compound displayed a Residual rate in data set [1] of 100%. The EC50 on Human KCNQ2/3 channel amounted to 500 nM. In addition, in data set [2], the 20% effect level (IC20) was put at 400 nM. The same compound came in with a solubility at 5 h in data set [3] of 89 µM (≈ 42.5 µg/mL).

With `O=C(NCc1cnc(C(F)(F)F)s1)Nc1c(Cl)cc([C@@H](O)C(F)(F)F)cc1Cl` [Example 33, 1-{2,6-dichloro-4-[(1R)-2,2,2-trifluoro-1-hydroxyethyl]phenyl}-3-{[2-(trifluoromethyl)-1,3-thiazole-5-yl]methyl}urea], the IC50 on hERG channel is > 10000 nM. The compound further came in with a Residual rate in data set [1] of 100%. The EC50 on Human KCNQ2/3 channel was determined as 40 nM. This compound also had an IC20 in data set [2] of 30 nM. Further, the concentration in solution in data set [3] (solubility at 5 h) came to 91 µM (≈ 42.6 µg/mL).

For `O=C(NCc1cnc(C(F)(F)F)nc1)Nc1c(Cl)cc([C@H](O)C(F)(F)F)cc1Cl` [Example 35 (3), 1-{2,6-dichloro-4-[(1S)-2,2,2-trifluoro-1-hydroxyethyl]phenyl}-3-{[2-(trifluoromethyl)-5-pyrimidinyl]methyl}urea], the IC50 at hERG channel is > 10000 nM. Further, the Residual rate in data set [1] stood at 100%. Moreover, the EC50 on Human KCNQ2/3 channel came out at 300 nM. In addition, the 20% effect concentration (IC20) in data set [2] stood at 100 nM. In addition, in data set [3], the solubility at 5 h is 87 µM (≈ 40.3 µg/mL).

Regarding `C[C@](O)(c1cc(Cl)c(NC(=O)NCc2ccc(C(F)(F)F)nc2)c(Cl)c1)C(F)(F)F` [Example 25 (2), 1-{2,6-dichloro-4-[(2S)-1,1,1-trifluoro-2-hydroxy-2-propanyl]phenyl}-3-{[6-(trifluoromethyl)-3-pyridinyl]methyl}urea], the IC50 on hERG channel is > 10000 nM. This compound returned a Residual rate in data set [1] of 80%. In addition, the EC50 at Human KCNQ2/3 channel was found to be 300 nM. Besides, the IC20 in data set [2] was found to be 200 nM. In data set [3], the concentration in solution (solubility at 5 h) was 86 µM (≈ 41 µg/mL).

In general, IC50 refers to the concentration needed to halve the response being measured. Usually IC20 stands for the point of the concentration-response curve where the effect stands at 20%. Low values mean greater potency, high ones weaker potency. As usually defined, the solubility is the dissolved amount per volume that the medium holds.
